From patent US20240216362A1, “BENZOTHIAZOLE AND QUINOLINE DERIVATIVES FOR USE IN TREATING KAWASAKI DISEASE” (Shanghai Yao Yuan Biotechnology Co., Ltd., priority 2021, published 2024)
Counter-ions that a name gives are not always drawn.

Experiments:
[1] = molecular target: hALPK1-V1092A (transiently transfected HEK293 cells) (Homo sapiens (Human), UniProt Q96QP1, V1092A); test: Inhibition of IL-8 secretion in cells expressing V1092A ALPK1 mutant; type: cell-based; conditions: 24 hours, relative to wild-type HEK293 cells
Procedure: (§1) HEK293 cells were cultured as described above prior to transient transfection with either empty vector or an expression vector encoding (i) human ALPK1 (hALPK1), (ii) hALPK1 with the T237M activating mutation (hALPK1-T237M) (iii) hALPK1 with the V1092A activating mutation (hALPK1-V1092A), or (iv) a kinase dead ALPK1 mutant (hALPK1-T237M-D1194S). Transfection was performed according to manufacturer's protocols (Lipofectamine™ 3000, ThermoFisher). Transfected cells were selected, seeded onto 96-well plates and treated with serial dilutions of the test compounds for 6.5 hr. Following treatment, cell viability was determined using a luminescent cell viability assay (Cell Counting-Lite Assay or “CCL Assay” from Vazyme Biotech Co., Ltd.) and cell free supernatants were collected and analyzed for IL-8 protein by IL-8 ELISA as described above. […] As shown in the figure, very little IL-8 was detectable in cells transfected with any of the empty vector, hALPK1, or the kinase dead hALPK1 mutant. In contrast, both of the activating mutations in hALPK1 induced significant IL-8 secretion.
For the V1092A mutant study shown in Table 4, HEK293 cells were transiently transfected with hALPK1-V1092A or hALPK1 (wildtype) expression vectors and then treated with test compounds for 24 hours. Fresh medium and compound were added at 18 hours. Cell viability and IL-8 secretion were determined 6 hours after the second addition of compound, using the CCL assay and IL-8 ELISA as described above.

[2] = tested on: ALPK1-dependent gene expression in PBMC; test: Inhibition of ALPK1 in PBMC cells (gene mRNA); type: in vivo, Sprague-Dawley (SD) rats; conditions: SD rats, 10 mpk oral, 2 h before ALPK1 agonist ip, blood 3 h after agonist, compared with vehicle group
Description: We examined whether ALPK1 inhibitors can suppress ALPK1-dependent activation of a set of such genes in rats. Animals were orally administered compound T007 and ALPK1-dependent gene expression was induced by intraperitoneal administration of the ALPK1 agonist, D-glycero-D-manno-6-fluoro-heptose-lo-S-ADP. PBMCs were collected and gene expression analyzed, as described in more detail below.
Thirty-six male Sprague-Dawley (SD) rats were randomly divided into six groups. A first control group (“normal”) was administered vehicle (0.5% MC) orally, followed 2 hours later with PBS administered by intraperitoneal injection (ip). A second control group (“vehicle”) was administered vehicle (0.5% MC) orally, followed 2 hours later by ip administration of the ALPK1 agonist, D-glycero-D-manno-6-fluoro-heptose-1β-S-ADP (50 ppk). Treatment groups were administered ALPK1 inhibitors (10 mpk) orally, followed 2 hours later by ip administration of the ALPK1 agonist. […] RNA was isolated and samples were analyzed by RT-PCR for gene expression. […] Quantitative PCR was conducted using AceQ qPCR SYBR Green Master Mix Kit (Vazvme, Nanjing, China) on the QuantStudio 5 applied biosystems (Thermo scientific, USA). Relative mRNA levels were calculated using the 2−ΔΔCT method, and HPRT was used as a reference for gene expression normalization. […]

[3] = tested on: IL1β mRNA induced by ALPK1 activation in THP-1-derived macrophages; test: PMA-differentiated THP-1 cell based assay (IL1β mRNA); conditions: Homo sapiens; PMA-differentiated THP-1 cells, ALPK1 agonist stimulation 4 h; read-out: IC50 for inhibition of IL1β mRNA
Procedure: Peripheral blood mononuclear cells (PBMCs) from Kawasaki patients show activation of ALPK1-TIFA-IL10μ pathway. We evaluated the ability of ALPK1 inhibitors to suppress IL1β levels following ALPK1 activation in THP-1-derived macrophage cells in which the ALPK1-TIFA-IL1P pathway is activated by an ALPK1 agonist, D-glycero-D-manno-6-fluoro-heptose-1β-S-A DP.
THP-1 cells were cultured in RPMI 1640 containing 10% heat inactivated FBS, penicillin (100 units/ml) and streptomycin (100 μg/ml), and maintained in a humidified incubator with 95% atmospheric air and 5% CO2. Prior to the experiment, THP-1 cells were seeded into 24-well flat-bottom plate at a cell density of […]. Phorbol myristate acetate (PMA; 50 ng/ml) was used to treat THP-1 cells for 48 h, and then THP-1-derived macrophages were obtained. Following treatment THP-1 cells were pretreated with serially diluted compounds for 2 hours and then stimulated with D-glycero-D-manno-6-fluoro-heptose-1β-S-ADP for 4 h. […] The mRNA expression levels IL1β were detected by SYBR green gene expression assays. […] Relative expression was calculated by comparing to vehicle control and the values were plotted as fold induction. All activity results were expressed as the mean of triplicate determinations. IC50 was determined from dose response curve using Prism Software, version 6.00 from GraphPad Software.

[4] = tested on: ALPK1-dependent innate immunity gene expression; test: Inhibition of ALPK1 in coronary artery, aorta and heart muscle (innate immunity gene mRNA); type: in vivo, Sprague-Dawley (SD) rats; conditions: SD rats, 40 mpk oral, 2 h before ALPK1 agonist ip, tissue 3 h after agonist, compared with vehicle group
Description: To examine if ALPK1 inhibitors can suppress innate immunity genes activated upon ALPK1 activation, SD rats were orally administered compound T007 and gene expression of innate immunity genes was activated by intraperitoneal administration of the ALPK1 agonist, D-glycero-D-manno-6-fluoro-heptose-1β-S-ADP. The coronary artery, aorta and heart muscle tissues were examined for inhibition of ALPK1 inhibitors on innate immunity gene expression.
Twenty male Sprague-Dawley (SD) rats were randomly divided into four groups. A first control group (“normal”) was administered vehicle (0.5% MC) orally, followed 2 hours later with PBS administered by intraperitoneal injection (ip). A second control group (“vehicle”) was administered vehicle (0.5% MC) orally, followed 2 hours later by ip administration of the ALPK1 agonist, D-glycero-D-manno-6-fluoro-heptosc-1β-S-ADP (50 ppk). Treatment groups were administered ALPK1 inhibitors (40 mpk) orally, followed 2 hours later by ip administration of the ALPK1 agonist. The coronary artery, cardiac muscle and aorta from each group were collected 3 hours after administration of the ALPK1 agonist. RNA was isolated and samples were analyzed by RT-PCR for expression of MCP-1 (CCL-2), CCL-7, CXCL-1, CXCL-11, CXCL-10, IL-1β, CCL-5, TNF-α, and IL-6 mRNA. Briefly, total RNA was extracted following the protocol of the Rneasy Mini Kit (QIAGEN, Germany). Messenger RNA was reverse transcribed to cDNA using HiScript Q RT SuperMix for qPCR Kit (Vazyme, Nanjing, China). Quantitative PCR was conducted using AceQ qPCR SYBR Green Master Mix Kit (Vazyme, Nanjing, China) on the QuantStudio 5 applied biosystems (Thermo scientific, USA). Relative mRNA levels were calculated using the 2−ΔΔCT method, and HPRT was used as a reference for gene expression normalization. Data were presented as the gene fold change against their respective expression in the control arm.

[5] = molecular target: T237M hALPK1 mutant (HEK293 A2 cells) (Homo sapiens (Human), UniProt Q96QP1, T237M); test: Inhibition of IL-8 secretion in cells expressing T237M ALPK1 mutant; type: cell-based; conditions: 40 hours, relative to wild-type HEK293 cells
Procedure: as §1
Next, we tested a representative set of compounds for inhibition of IL-8 secretion in cells expressing each of the activating ALPK1 mutants. T237M and V1092A. […] For the T237M mutant study, we produced an HEK293 cell line (“A2”) stably expressing the T237M hALPK1 mutant. A2 cells were cultured in the presence of test compound (6 uM) for 40 hours total. Fresh medium and compound were added at 24 hours. Cell viability and IL-8 secretion were determined 16 hours after the second addition of compound, using the CCL assay and IL-8 ELISA as described above.

[6] = molecular target: ALPK1 (Homo sapiens (Human), UniProt Q96QP1); test: ALPK1 in vitro kinase assay (HTRF, TIFA phosphorylation); type: biochemical; conditions: ADP-Heptose activated ALPK1, TIFA substrate
Procedure: ALPK1 kinase activity was measured in an in vitro assay using ADP-Heptose as the ALPK1 ligand and activator of its kinase activity and TIFA protein as the ALPK1 phosphorylation substrate. Since phosphorylated TIFA proteins oligomerize, Homogeneous Time-Resolved Fluorescence (HTRF) was used to measure protein:protein interaction between HA-tagged TIFA proteins as an indicator of TIFA phosphorylation.
In brief, dose-response studies were performed with HEK293 cells cultured in Dulbecco's Modified Eagle Medium (DMEM) supplemented 10% fetal bovine serum (FBS, Hyclone™) containing antibiotics (pen/strep, G418) in 384-well assay plates. Each well contained 0.1 mg TIFA, ALPK1 (2 nM final concentration in reaction mixture) and kinase buffer (100 mM of HEPES pH 7.4, 4 mM DTT, 40 mM MgCl2, 20 mM of β-Glycerol phosphate disodium salt, 0.4 mM of Na3VO4, 0.16 mg/mL). […]
For HTRF, samples were incubated with a Tb cryptate-labeled anti-HA antibody for capturing HA-tagged proteins according to the manufacturer's instructions (PerkinElmer™, CisBio™) and the fluorescence signal was quantified (Tecan Infinite F NANO+). HTRF signals were calculated as the HTRF ratio (ratio of fluorescence measured at 665 nm and 620 nm)×104 (thereby using the signal at 620 nm as an internal standard).
IC50 values were determined using 3- or 4-parameter logistic equation using GraphPad Prism version 6.00. […]

Sequence of hALPK1-V1092A (transiently transfected HEK293 cells) (Q96QP1 whole entry V1092A): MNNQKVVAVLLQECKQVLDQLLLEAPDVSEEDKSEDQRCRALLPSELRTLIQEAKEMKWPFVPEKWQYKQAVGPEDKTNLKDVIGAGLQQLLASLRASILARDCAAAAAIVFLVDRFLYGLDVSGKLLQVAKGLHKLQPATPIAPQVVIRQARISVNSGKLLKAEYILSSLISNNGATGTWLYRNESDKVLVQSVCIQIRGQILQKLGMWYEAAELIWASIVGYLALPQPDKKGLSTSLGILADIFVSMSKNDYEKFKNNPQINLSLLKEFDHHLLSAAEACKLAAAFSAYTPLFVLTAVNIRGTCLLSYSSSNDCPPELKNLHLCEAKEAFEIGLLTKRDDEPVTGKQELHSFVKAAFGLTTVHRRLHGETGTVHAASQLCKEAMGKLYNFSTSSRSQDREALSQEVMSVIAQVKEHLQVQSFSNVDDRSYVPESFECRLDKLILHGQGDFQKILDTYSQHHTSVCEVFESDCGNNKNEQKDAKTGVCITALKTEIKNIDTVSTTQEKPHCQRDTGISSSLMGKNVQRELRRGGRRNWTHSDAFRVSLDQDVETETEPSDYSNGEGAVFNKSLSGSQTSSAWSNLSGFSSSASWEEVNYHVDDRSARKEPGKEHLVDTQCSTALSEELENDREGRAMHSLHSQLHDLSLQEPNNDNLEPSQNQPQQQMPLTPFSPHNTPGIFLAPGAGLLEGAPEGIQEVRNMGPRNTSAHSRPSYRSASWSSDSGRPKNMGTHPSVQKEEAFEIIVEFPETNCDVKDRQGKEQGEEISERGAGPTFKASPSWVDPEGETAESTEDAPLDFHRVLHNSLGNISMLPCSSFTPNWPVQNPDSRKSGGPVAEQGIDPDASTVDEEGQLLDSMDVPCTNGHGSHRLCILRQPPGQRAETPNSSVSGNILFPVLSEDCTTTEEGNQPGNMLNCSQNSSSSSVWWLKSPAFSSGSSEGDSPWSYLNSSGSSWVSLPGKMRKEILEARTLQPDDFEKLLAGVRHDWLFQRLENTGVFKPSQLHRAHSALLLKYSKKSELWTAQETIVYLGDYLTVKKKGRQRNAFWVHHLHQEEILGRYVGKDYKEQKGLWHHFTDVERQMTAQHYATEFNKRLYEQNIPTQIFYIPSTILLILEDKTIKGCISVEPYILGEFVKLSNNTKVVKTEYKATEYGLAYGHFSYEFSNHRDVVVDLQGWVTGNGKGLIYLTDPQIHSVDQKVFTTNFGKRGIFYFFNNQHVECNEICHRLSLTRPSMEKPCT
Sequence of T237M hALPK1 mutant (HEK293 A2 cells) (Q96QP1 whole entry T237M): as the sequence (Q96QP1 whole entry V1092A) above, with T237M, A1092V counted along it
Sequence of ALPK1 (Q96QP1 whole entry): as the sequence (Q96QP1 whole entry V1092A) above, with A1092V counted along it

Compound | inhibition at 6 µM [1] [%] | inhibition at 6 µM [5] [%] | other results
COc1cccc2ccc(NC(=O)c3c(F)ccc(N4CCNCC4)c3F)nc12 [Compound Q005, 2,6-difluoro-N-(8-methoxyquinolin-2-yl)-3-(piperazin-1-yl)benzamide] | 52 | – | –
COc1cccc2sc(NC(=O)c3c(F)cc(N4CCNCC4)cc3F)nc12 [Compound T017, 2,6-difluoro-N-(4-methoxybenzo[d]thiazol-2-yl)-4-(piperazin-1-yl)benzamide hydrochloride] | 50 | – | –
C#Cc1cccc2sc(NC(=O)c3c(F)cc(N4CCNCC4)cc3F)nc12 [Compound T007, N-(4-ethynylbenzo[d]thiazol-2-yl)-2,6-difluoro-4-(piperazin-1-yl)benzamide] | 95 | 91 | mRNA expression of PBMC CXCL-1 [2]: significantly decreased; IC50 [3]: 21 nM; mRNA expression of aorta IL-6, CXCL-1, CXCL-10, CCL-2 [4]: significantly decreased; mRNA expression of cardiac muscle TNF-α, IL-1b, IL-6, CXCL-1, CXCL-10, CXCL-11, CCL-2 and CCL-5 [4]: significantly decreased; mRNA expression of coronary artery TNF-α, CXCL-1, CCL-2 and CCL-7 [4]: significantly decreased
O=C(Nc1nc2c(F)cc(F)cc2s1)c1c(F)cc(N2CCNCC2)cc1F [Compound T035, N-(4,6-difluorobenzo[d]thiazol-2-yl)-2,6-difluoro-4-(piperazin-1-yl)benzamide] | – | – | IC50 [6]: 1340 nM
C#Cc1cccc2sc(NC(=O)c3c(C)cc(N4CCNCC4)cc3F)nc12 [Compound T050, N-(4-ethynylbenzo[d]thiazol-2-yl)-2-fluoro-6-methyl-4-(piperazin-1-yl)benzamide] | – | – | IC50 [6]: 15 nM
C#Cc1cccc2sc(NC(=O)c3c(Cl)cc(N4CCNCC4)cc3Cl)nc12 [Compound T048, 2,6-dichloro-N-(4-ethynylbenzo[d]thiazol-2-yl)-4-(piperazin-1-yl)benzamide] | – | 66 | –
COc1cccc2ccc(NC(=O)c3c(F)cc(N4CCNCC4)cc3F)nc12 [Compound Q001, 2,6-difluoro-N-(8-methoxyquinolin-2-yl)-4-(piperazin-1-yl)benzamide] | 68 | 69 | –
